{
  "source": "patent US20250195534A1",
  "about": "(AXSOME THERAPEUTICS, INC., priority 2022, published 2025)",
  "assay": "Phase 3 randomized, double-blind, placebo- and active-controlled trial of meloxicam/rizatriptan in acute treatment of migraine (Example 1, MOMENTUM)",
  "key": {"[1]": {"settings": "treatment-emergent adverse event"}},
  "data": [
    {"smiles": "CN(C)CCc1c[nH]c2ccc(Cn3cncn3)cc12", "note": "[Rizatriptan]", "values": [
      {"measurement": "proportion of patients experiencing pain relief", "setting": "[…] after dosing, single dose", "result": 52.5, "unit": "%"},
      {"measurement": "percentage of patients experiencing sustained pain relief", "setting": "from 2 hours to 24 hours after dosing", "result": 43.9, "unit": "%"},
      {"measurement": "proportion of patients with sustained pain freedom", "setting": "from 2 hours to 48 hours", "result": 8.8, "unit": "%"},
      {"measurement": "Any Treatment-Emergent Adverse Event, number of subjects", "setting": "single dose", "result": 67, "unit": "subjects"},
      {"measurement": "Dizziness, % of subjects", "setting": "[1]", "result": 2.1, "unit": "%"},
      {"measurement": "Dizziness, number of subjects", "setting": "[1]", "result": 9, "unit": "subjects"},
      {"measurement": "Nausea, % of subjects", "setting": "[1]", "result": 4.8, "unit": "%"},
      {"measurement": "Nausea, number of subjects", "setting": "[1]", "result": 21, "unit": "subjects"},
      {"measurement": "Somnolence, % of subjects", "setting": "[1]", "result": 2.1, "unit": "%"},
      {"measurement": "Somnolence, number of subjects", "setting": "[1]", "result": 9, "unit": "subjects"}
    ]}
  ]
}
